Results published in US3941777A, “Compounds having juvenile hormone activity” (A/S Cheminova, priority 1973, dated 1976).
In brackets after ≈: the same amount, converted by molar mass.

Tests used:
Culex pipiens L. = test: Culex test: mature larvae, loss of 50% of the test animals; assay type: in vivo; settings: concentration producing a loss of 50% of the test animals, read-out: Culex test IC-50 eclos.
Protocol: Culex test: The compounds were tested on mature larvae of Culex pipiens. (IC-50 eclos.) in ppm.

Tenebrio molitor L. = test: Tenebrio test: topical application to pupae, inhibition of adult characters; assay type: in vivo; settings: topical in acetone to abdomen of 0.5 to 2 hours old pupae; 27°C, 70% RH; ecdysis 5 to 7 days later; perfect adult 0%, perfect second pupa 100%
Protocol: The biological tests are examplified by tests on Tenebrio molitor L., Galleria mellonella L. and Culex pipiens L. Tenebrio test: The material in question is applied topically to the abdomen of 0.5 to 2 hours old pupae of the said specimen, as a solution in acetone. The pupae are held at 27°C and 70% RH, ecdysis occuring 5 to 7 days later. The degree of inhibition of adult characters is refered to an arbitrary scale, a morphologically perfect adult given the character 0%, a perfect second pupa 100%.

With `CC(C)=CCCC(C)=CCON=Cc1ccccc1` [Compound 1, Benzaldoxime-0-geranyl ether] the LC50 (Culex pipiens L.) was < 1 µg/mL and the “Tenebrio test ID-50 morph.” value (Tenebrio molitor L.) was 0,05 μg/pupa.

`CC(=CCON=Cc1ccccc1)CCC1OC1(C)C` (stereo not drawn) [Compound 2, Benzaldoxime-O-epoxygeranyl ether] was tested, and the “Tenebrio test ID-50 morph.” value (Tenebrio molitor L.) was > 0,1 μg/pupa.

With `CCC(C)=CCCC(=CCON=Cc1ccccc1)CC` [Compound 4, Benzaldoxime-O-(3-ethyl-7-methyl-2,6-nonadiene-1-yl)-ether] the “Tenebrio test ID-50 morph.” value (Tenebrio molitor L.) was 0,01 μg/pupa.

In the case of `CC(C)=CCCC(C)=CCON=Cc1ccc2c(c1)OCO2` [Compound 5, Piperonaloxime-O-geranyl ether], the LC50 (Culex pipiens L.) is reported as 1 µg/mL (≈ 3.32 µM) and the “Tenebrio test ID-50 morph.” value (Tenebrio molitor L.) is reported as > 100 μg/pupa.

`CC(C)=CCCC(C)=CCON=Cc1ccc(C)cc1` [Compound 6, p-Tolualdoxime-O-geranyl ether] was tested, and the LC50 (Culex pipiens L.) was 10 µg/mL (≈ 36.8 µM) and the “Tenebrio test ID-50 morph.” value (Tenebrio molitor L.) was 50 μg/pupa.

With `CC(C)=CCCC(C)=CCON=Cc1cccnc1` [Compound 7, 3-Pyridinealdoxime-O-geranyl ether] the “Tenebrio test ID-50 morph.” value (Tenebrio molitor L.) was 10 μg/pupa.

For `CC(C)=CCCC(C)CCON=Cc1ccccc1` (stereo not drawn) [Compound 8, Benzaldoxime-O-citronellyl ether], the LC50 (Culex pipiens L.) was < 10 µg/mL and the “Tenebrio test ID-50 morph.” value (Tenebrio molitor L.) was > 100 μg/pupa.

In the case of `CCC(C)=CCON=Cc1ccc2c(c1)OCO2` [Compound 9, Piperonaloxime-O-(3-methyl-2-pentene-1-yl)-ether], the LC50 (Culex pipiens L.) is reported as 0.02 µg/mL (≈ 0.0809 µM) and the “Tenebrio test ID-50 morph.” value (Tenebrio molitor L.) is reported as 10 μg/pupa.

In the case of `CCC(C)=CCON=Cc1ccccc1` [Compound 10, Benzaldoxime-O-(3-methyl-2-pentene-1-yl)-ether], the LC50 (Culex pipiens L.) is reported as 1 µg/mL (≈ 4.92 µM) and the “Tenebrio test ID-50 morph.” value (Tenebrio molitor L.) is reported as > 100 μg/pupa.

With `CCC(C)=CCCON=Cc1ccc2c(c1)OCO2` [Compound 11, Piperonaloxime-O-(4-methyl-3-hexene-1-yl)-ether] the LC50 (Culex pipiens L.) was 0.5 µg/mL (≈ 1.91 µM) and the “Tenebrio test ID-50 morph.” value (Tenebrio molitor L.) was > 100 μg/pupa.

With `CCC(C)=CCCON=Cc1ccccc1` [Compound 12, Benzaldoxime-O-(4-methyl-3-hexene-1-yl)-ether] the LC50 (Culex pipiens L.) was < 10 µg/mL and the “Tenebrio test ID-50 morph.” value (Tenebrio molitor L.) was > 100 μg/pupa.

In the case of `CC(C)=CCCC(C)=CCON=CCO` [Compound 13, Glycollicaldoxime-O-geranyl ether], the LC50 (Culex pipiens L.) is reported as 10 µg/mL (≈ 47.3 µM) and the “Tenebrio test ID-50 morph.” value (Tenebrio molitor L.) is reported as 50 μg/pupa.

With `CCOC(=O)C=NOCC=C(C)CCC=C(C)C` [Compound 14, Glyoxylic acid ethylester aldoxime-O-geranyl ether] the LC50 (Culex pipiens L.) was 1 µg/mL (≈ 3.95 µM) and the “Tenebrio test ID-50 morph.” value (Tenebrio molitor L.) was 1 μg/pupa.

`CCOC(=O)C=NOCC=C(C)CCC1OC1(C)C` (stereo not drawn) [Compound 15, Glyoxylic acid ethylester aldoxime-O-(epoxygeranyl)-ether] was tested, and the LC50 (Culex pipiens L.) was 1 µg/mL (≈ 3.71 µM) and the “Tenebrio test ID-50 morph.” value (Tenebrio molitor L.) was 1 μg/pupa.

With `CCOC(=O)C=NOCC=C(C)CCCC(C)(C)OCC` [Compound 16, Glyoxylic acid ethylester aldoxime-O-(7-ethoxy-geranyl)-ether] the LC50 (Culex pipiens L.) was 1 µg/mL (≈ 3.34 µM) and the “Tenebrio test ID-50 morph.” value (Tenebrio molitor L.) was 1 μg/pupa.
